These results are taken from patent publication US8710091B2, “Imidazolidine-2,4-dione derivatives, and use thereof as a cancer drug” (Ipsen Pharma S.A.S., priority 2009, dated 2014).

The subject of one assay is LNCaP cells. As to the kind of experiment: Anti-proliferative activity on LNCaP in complete medium (WST-1). It counts as cell-based. As to conditions: Homo sapiens, 144 h, 144 h incubation, read-out: IC50 on the LNCaP cells in culture (concentration inhibiting cell proliferation by 50%). How it is done:
The anti-proliferative activity of the compounds of the present invention is determined on LNCaP in complete medium by applying the following experimental procedure:
The LNCaP cell type (ATCC, 1740) originating from a prostate carcinoma expressing the androgen receptor, this line is hormone-dependent.
Maintenance of the LNCaP line is carried out in complete culture medium: RPMI, 10% of foetal calf serum, 2 mM glutamine, 100 U/ml penicillin, 0.1 mg/ml of streptomycin and 0.01M HEPES, 1 mM sodium pyruvate, 40% of D-glucose. • Seeding the plates:
The LNCaP line is seeded at 20,000 cells/well in 90 μl of complete medium in 96-well plates coated with poly-D-lysine (Biocoat, Costar). • Treatment of the cells: 24 h after the seeding, the cells are treated with 10 μl/well of compound diluted in the culture medium. Experiments of the effect of doses of the compound are carried out on a scale of 1 nM to 100 µM. The concentrations used are the following: 1 nM/10/30/100/300/1000/3000/10,000/100,000 nM. Testosterone (SIGMA T1500) is used as a reference and tested at the same concentrations. The cells are incubated for 144 h at 37° C., 5% CO2. • Reading: On D6, 10 μL of the “WST-1 cell proliferation” reagent (Roche ref 1644807) is added to each well. After incubation for 2 hours at 37° C., 5% CO2, the absorbance at 450 nm is measured by spectrophotometry (Envision, Perkin Elmer). • Results: The experiments are carried out in duplicate and the best compounds are tested twice. […] 2. Antiproliferative Activity on LNCaP in Medium without Steroids: […]
Background: Tetrazolium assays rely on reduction of a dye to a coloured formazan, in cell work by metabolically active cells.

The subject of another assay is DU145 cells. Briefly: Antiproliferative activity on DU-145 in complete medium (WST-1). To be noted: Homo sapiens, 144 h incubation, read-out: IC50 on the DU145 cells in culture (concentration inhibiting cell proliferation by 50%). The class given is cell-based. As for the experimental part: The anti-proliferative activity of the compounds of the present invention is determined on DU-145 in complete medium.
Maintenance of the DU-145 line is carried out in DMEM, 10% of foetal calf serum, 2 mM of glutamine, 100 U/ml of penicillin, 0.1 mg/ml of streptomycin. • Seeding the plates: • The DU145 line is seeded at 400 or 800 cells/well in 90 μl of DMEM complete medium in 96-well plates (TPP). • Treatment of the cells: 24 h after the seeding, the cells are treated with 10 μl/well of compound diluted in the culture medium. Experiments showing the dose-effect of the compound are carried out on a scale of 1 nM to 100 μM. The concentrations used are the following: 1 nM/10/30/100/300/1000/3000/10,000/100,000 nM. The cells are incubated for 144 h at 37° C., 5% CO2. • Reading: On D6, 10 μL, of cell proliferation reagent WST-1 (Roche ref 1644807) is added to each well. After incubation for 2 to 4 hours at 37° C., 5% CO2, the absorbance at 450 nm is measured by spectrophotometry (Envision, Perkin Elmer). • Results: The experiments are carried out in duplicate and the best compounds are tested twice. […] 4. Measurement of the Disappearance of the Androgen Receptor

The structures appear in SMILES notation.

`CC1(C)C(=O)N(c2ccc([N+](=O)[O-])c(C(F)(F)F)c2)C(=O)N1CCCCCCCCCS(=N)(=O)CCCC(F)(F)C(F)(F)F` (stereo not drawn) [Example 46, 5,5-dimethyl-3-[4-nitro-3-(trifluoromethyl)phenyl]-1-{9-[S-(4,4,5,5,5-pentafluoropentyl)sulphonimidoyl]nonyl}imidazolidine-2,4-dione]: the IC50 with LNCaP cells was < 2 µM.
`Cc1cc(N2C(=O)N(CCCCCCCCC[S+]([O-])CCCC(F)(F)C(F)(F)F)C(C)(C)C2=O)ccc1NS(N)(=O)=O` (stereo not shown) [Example 31, N-[4-(4,4-dimethyl-2,5-dioxo-3-{9-[(4,4,5,5,5-pentafluoropentyl)sulphinyl]nonyl}imidazolidin-1-yl)-2-methylphenyl]sulphamide]: the IC50 was < 2 µM with LNCaP cells and > 10 µM with DU145 cells.
For `CC1(C)C(=O)N(c2ccc([N+](=O)[O-])c(C(F)(F)F)c2)C(=O)N1CCCCCCCCCCC[S+]([O-])CCCC(F)(F)C(F)(F)F` (stereo not shown) [Example 11, 5,5-dimethyl-3-[4-nitro-3-(trifluoromethyl)phenyl]-1-{11-[(4,4,5,5,5-pentafluoropentyl)sulphinyl]undecyl}imidazolidine-2,4-dione] the same measures were < 2 µM and > 10 µM.
Take `CC1(C)C(=O)N(c2ccc([N+](=O)[O-])c(C(F)(F)F)c2)C(=O)N1CCCCCCCCC[S+]([O-])CCCC(F)(F)C(F)(F)F` (stereo not shown) [Example 2, 5,5-dimethyl-3-[4-nitro-3-(trifluoromethyl)phenyl]-1-{9-[(4,4,5,5,5-pentafluoropentyl)sulphinyl]nonyl}imidazolidine-2,4-dione]: the IC50 with DU145 cells was > 10 µM.
For the compound `CC1(C)C(=O)N(c2ccc([N+](=O)[O-])c(C(F)(F)F)c2)C(=O)N1CCOCCOCC[S+]([O-])CCCC(F)(F)C(F)(F)F` (stereo not shown) [Example 37, 5,5-dimethyl-3-[4-nitro-3-(trifluoromethyl)phenyl]-1-[2-(2-{2-[(4,4,5,5,5-pentafluoropentyl)sulphinyl]ethoxy}ethoxy)ethyl]imidazolidine-2,4-dione], the IC50 in the assay on LNCaP cells was < 2 µM; in the assay on DU145 cells it was > 10 µM.
With `Cc1cc(N2C(=O)N(CCCCCCCCC[S+]([O-])CCCC(F)(F)C(F)(F)F)C(C)(C)C2=O)ccc1N` (stereo not shown) [Example 26, 3-(4-amino-3-methylphenyl)-5,5-dimethyl-1-{9-[(4,4,5,5,5-pentafluoropentyl)sulphinyl]nonyl}imidazolidine-2,4-dione], in the assay on DU145 cells, the IC50 was > 10 µM.
Same read-out and setting: the figure for `CC(=O)Nc1ccc(N2C(=O)N(CCOCCOCC[S+]([O-])CCCC(F)(F)C(F)(F)F)C(C)(C)C2=O)cc1C(F)(F)F` (stereo not shown) [Example 39, N-[4-{4,4-dimethyl-2,5-dioxo-3-[2-(2-{2-[(4,4,5,5,5-pentafluoropentyl)sulphinyl]ethoxy}ethoxy)ethyl]imidazolidin-1-yl}-2-(trifluoromethyl)phenyl]acetamide] is > 10 µM.
For `Cc1cc(N2C(=O)N(CCCCCCCCCSCCCC(F)(F)C(F)(F)F)C(C)(C)C2=O)ccc1NS(N)(=O)=O` [Example 30, N-[4-(4,4-dimethyl-2,5-dioxo-3-{9-[(4,4,5,5,5-pentafluoropentyl)sulphanyl]nonyl}imidazolidin-1-yl)-2-methylphenyl]sulphamide], the figures for the IC50 in the assay with LNCaP cells and in the assay with DU145 cells were < 2 µM and > 10 µM, respectively.
`CC1(C)C(=O)N(c2ccc([N+](=O)[O-])c(C(F)(F)F)c2)C(=O)N1CCCCCCCCCSCCCC(F)(F)C(F)(F)F` [Example 1, 5,5-dimethyl-3-[4-nitro-3-(trifluoromethyl)phenyl]-1-{9-[(4,4,5,5,5-pentafluoropentyl)thio]nonyl}imidazolidine-2,4-dione]: the results for the IC50 in the assay on LNCaP cells and in the assay with DU145 cells were < 2 µM and > 10 µM, respectively.
The corresponding values for `CC1(C)C(=O)N(c2ccc([N+](=O)[O-])c(C(F)(F)F)c2)C(=O)N1CCCCCCCCCS(=O)(=O)CCCC(F)(F)C(F)(F)F` [Example 3, 5,5-dimethyl-3-[4-nitro-3-(trifluoromethyl)phenyl]-1-{9-[(4,4,5,5,5-pentafluoropentyl)sulphonyl]nonyl}imidazolidine-2,4-dione] are < 2 µM and > 10 µM.
The corresponding values for `CC1(C)C(=O)N(c2ccc(C(N)=O)c(C(F)(F)F)c2)C(=O)N1CCCCCCCCC[S+]([O-])CCCC(F)(F)C(F)(F)F` (stereo not shown) [Example 22, 4-(4,4-dimethyl-2,5-dioxo-3-{9-[(4,4,5,5,5-pentafluoropentyl)sulphinyl]nonyl}imidazolidin-1-yl)-2-(trifluoromethyl)benzamide] are < 2 µM and > 10 µM.
`CC1(C)C(=O)N(c2ccc([N+](=O)[O-])c(C(F)(F)F)c2)C(=O)N1CCCCCCCCCCSCCCC(F)(F)C(F)(F)F` [Example 8, 5,5-dimethyl-3-[4-nitro-3-(trifluoromethyl)phenyl]-1-{10-[(4,4,5,5,5-pentafluoropentyl)thio]decyl}imidazolidine-2,4-dione]: the IC50 in the assay on DU145 cells is > 10 µM.
Consider `Cc1cc(N2C(=O)N(CCCCCCCCCS(=O)(=O)CCCC(F)(F)C(F)(F)F)C(C)(C)C2=O)ccc1NS(N)(=O)=O` [Example 32, N-[4-(4,4-dimethyl-2,5-dioxo-3-{9-[(4,4,5,5,5-pentafluoropentyl)sulphonyl]nonyl}imidazolidin-1-yl)-2-methylphenyl]sulphamide], for which the IC50 in the assay with LNCaP cells was < 2 µM; in the assay with DU145 cells, > 10 µM.
`CC(=O)Nc1ccc(N2C(=O)N(CCOCCOCCSCCCC(F)(F)C(F)(F)F)C(C)(C)C2=O)cc1C(F)(F)F` [Example 38, N-[4-{4,4-dimethyl-2,5-dioxo-3-[2-(2-{2-[(4,4,5,5,5-pentafluoropentyl)sulphanyl]ethoxy}ethoxy)ethyl]imidazolidin-1-yl}-2-(trifluoromethyl)phenyl]acetamide]: the IC50 in the assay with DU145 cells is > 10 µM.
The same measure, in the same setting: the figure for `CC1(C)C(=O)N(c2ccc([N+](=O)[O-])c(C(F)(F)F)c2)C(=O)N1CCOCCOCCSCCCC(F)(F)C(F)(F)F` [Example 36, 5,5-dimethyl-3-[4-nitro-3-(trifluoromethyl)phenyl]-1-[2-(2-{2-[(4,4,5,5,5-pentafluoropentyl)sulphanyl]ethoxy}ethoxy)ethyl]imidazolidine-2,4-dione] is > 10 µM.
Turning to `CC1(C)C(=O)N(c2ccc([N+](=O)[O-])c(C(F)(F)F)c2)C(=O)N1CCCCCCCCCSCCC(F)(F)C(F)(F)C(F)(F)C(F)(F)F` [Example 14, 5,5-dimethyl-3-[4-nitro-3-(trifluoromethyl)phenyl]-1-{9-[(3,3,4,4,5,5,6,6,6-nonafluorohexyl)thio]nonyl}imidazolidine-2,4-dione], in the assay on DU145 cells, the IC50 is > 10 µM.
On the same count and under the same terms, the figure for `CC1(C)C(=O)N(c2ccc([N+](=O)[O-])c(C(F)(F)F)c2)C(=O)N1CCCCCCCCCC[S+]([O-])CCCC(F)(F)C(F)(F)F` (stereo not shown) [Example 9, 5,5-dimethyl-3-[4-nitro-3-(trifluoromethyl)phenyl]-1-{10-[(4,4,5,5,5-pentafluoropentyl)sulphinyl]decyl}imidazolidine-2,4-dione] is > 10 µM; for `CC1(C)C(=O)N(c2ccc([N+](=O)[O-])c(C(F)(F)F)c2)C(=O)N1CCCCCCCCC/S(CCCC(F)(F)C(F)(F)F)=N/C(=O)C(F)(F)F` (stereo not shown) [Example 44, N-[(1Z)-(9-{5,5-dimethyl-3-[4-nitro-3-(trifluoromethyl)phenyl]-2,4-dioxoimidazolidin-1-yl}nonyl)(4,4,5,5,5-pentafluoropentyl)-λ^4-sulphanylidene]-2,2,2-trifluoroacetamide] it is > 10 µM; for `CC1(C)C(=O)N(c2ccc(N)c(C(F)(F)F)c2)C(=O)N1CCCCCCCCCSCCCC(F)(F)C(F)(F)F` [Example 16, 3-[4-amino-3-(trifluoromethyl)phenyl]-5,5-dimethyl-1-{9-[(4,4,5,5,5-pentafluoropentyl)thio]nonyl}imidazolidine-2,4-dione] it is > 10 µM.
Same read-out and setting: under `CC1(C)C(=O)N(c2ccc([N+](=O)[O-])cc2C(F)(F)F)C(=O)N1CCCCCCCCC[S+]([O-])CCCC(F)(F)C(F)(F)F` (stereo not shown) [Example 35, 5,5-dimethyl-3-[4-nitro-2-(trifluoromethyl)phenyl]-1-{9-[(4,4,5,5,5-pentafluoropentyl)sulphinyl]nonyl}imidazolidine-2,4-dione] stands > 10 µM.
